Experimental data from US11517554B2, “Method for preventing or treating Alzheimer's disease” (OLATEC THERAPEUTICS LLC, priority 2018, dated 2022).

Key:
opioid receptors = assay: Off-target screening: opioid receptors; type: binding; details: screening assay
Experimental: (§1) To investigate potential off-target activity of dapansutrile, secondary pharmacological effects were assessed through in vitro screening assays. […] An evaluation of 68 critical transmembrane and soluble receptors, ion channels and monoamine transporters were performed for off-target effects of dapansutrile. An additional 69 receptors and enzymes were evaluated with dapansutrile for potential activity in a follow-on study that focused on enzymes involved in inflammatory cascades. A single identified target, the PDE4 enzyme, was inhibited in a concentration range of ≥100 μM (13 μg/mL) and was dose-responsive for effect, but subsequent studies were not conclusive.

pro-IL-18 = assay: In vitro screening: inhibition of pro-IL-18; type: cell-based
Experimental: as §1

pro-IL-1 = assay: In vitro screening: inhibition of pro-IL-1; type: cell-based
Experimental: as §1

PDE4 enzyme = assay: Off-target screening: PDE4 enzyme inhibition; type: biochemical
Experimental: as §1

COX-1 = COX-1 (Homo sapiens, UniProt P23219); assay: Off-target screening: COX-1; type: biochemical; details: screening assay
Experimental: as §1

APP/PS1 mice [1] = assay: Morris water maze test in APP/PS1 mice; type: in vivo
Experimental: (§2) In the study design, 6-month-old wild-type (WT), and AD transgenic APP/PS1[deltaE9] mice were treated with oral dapansutrile via feed pellets ad libitum (approximately 0, 50 or 100 mg/kg/day based on feed concentrations of 0, 3.75 or 7.5 g/kg and food consumption of 4 g/day) for the treatment duration of 3 months. At 9 months old, behavior testing of the mice was performed. In addition, the brains of the mice were extracted, and blood samples were collected. The brains of the mice from each group were performed for electrophysiological and neuronal morphological analysis, cytokine levels and other assays.
Spatial memory formation and retention were assessed using the Morris water maze (MWM) assay. A 10 cm escape platform was submerged 1 cm below the water surface into a circular plastic pool filled up with opaque water. Three visual cues were positioned on the walls around the pool. A digital camera was installed above the center of the maze. Images will be acquired and transmitted to a PC running the tracking software ANY-maze (ANY-maze). On the first three days (pre-training) the mice were trained using a visible platform (the platform was placed above the water surface).
To assess spatial memory formation, the mice were trained to locate the hidden platform for 8 consecutive days. The escape latency of each trial (4 per day with an interval of 3-5 min) was recorded and analyzed by the tracking software. At training day 3 and at day 9, memory retention was assessed in a probe trial performed by removing the platform and analyzing the search pattern used by each mouse for a fixed time of 45 seconds.
The escape latency which describes the time mice need to find the hidden platform was measured and was analyzed as the mean value of the 4 trials each day and shown in FIG. 3A; all genotypes decreased the escape latency from day 1 to day 8. For example, on day 5, wildtype mice (N=8) needed 23.59±4.08 seconds to reach the platform. APP/PS1 (500 mg/kg/day dapansutrile treated) mice (N=5) needed 37.31±4.96 seconds, and APP/PS1 (1000 mg/kg dapansutrile treated) mice (N=6) needed 21.30±3.19 seconds (p value=0.021), compared to APP/PS1 (control food) mice (n=6) needed 42.04±6.89 seconds.
To provide the evidence for cognitive learning 24 hours after the last training session, a reverence test was performed (probe trial) on training day 9. Here, mice were tested in the water maze without the platform to escape and the time was measured in which quadrant the mice spend their time. We compare the mean time in percentage of the three non-target quadrants (NT) to the time in percentage of the target quadrant (TQ, platform was located during training period). […] Whereas there was no preference for a TQ over NT in APP/PS1 (control food) and APP/PS1 500 mg/kg/day (low dose).

COX-2 = target: T1, COX-2 (Homo sapiens, UniProt P35354); assay: Off-target screening: COX-2; type: biochemical; details: screening assay
T1 sequence (P35354 18-604): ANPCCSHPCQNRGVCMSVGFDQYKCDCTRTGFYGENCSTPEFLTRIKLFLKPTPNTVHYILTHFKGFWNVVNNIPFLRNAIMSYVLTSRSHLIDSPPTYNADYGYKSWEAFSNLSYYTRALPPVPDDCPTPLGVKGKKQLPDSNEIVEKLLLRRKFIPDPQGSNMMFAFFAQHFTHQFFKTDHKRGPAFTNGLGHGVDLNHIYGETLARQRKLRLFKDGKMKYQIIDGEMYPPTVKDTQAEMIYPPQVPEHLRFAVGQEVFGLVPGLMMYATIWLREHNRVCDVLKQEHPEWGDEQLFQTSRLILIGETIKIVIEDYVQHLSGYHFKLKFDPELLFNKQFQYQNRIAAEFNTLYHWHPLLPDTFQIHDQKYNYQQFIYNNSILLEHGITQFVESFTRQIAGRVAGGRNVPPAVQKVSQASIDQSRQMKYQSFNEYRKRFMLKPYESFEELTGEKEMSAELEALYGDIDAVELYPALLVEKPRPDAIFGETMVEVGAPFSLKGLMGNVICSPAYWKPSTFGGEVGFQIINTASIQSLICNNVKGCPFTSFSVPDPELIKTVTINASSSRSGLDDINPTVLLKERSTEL
Experimental: as §1

IL-1β challenged mice = assay: IL-6 and MPO levels after IL-1β intraperitoneal challenge in treated mice (ELISA); type: in vivo; details: 200 mg/kg, 8 injections over 4 days
Experimental: Mice were treated with 200 mg/kg dapansutrile (OLT1177™) for 8 injections over 4 days. Mice were trained on a rotarod on day 3. Twelve hours after the last injection, mice were run on the rotarod for distance. One hour after the rotarod, mice were challenged with 60 ng IL-1β intraperitoneally; mice were then sacrificed 4 hours later. Whole blood, plasma, brain, and lung of the mice were collected. Whole blood was cultured, plasma was frozen. Brain was processed for cytokine analysis. Each group had N=5. Ex vivo samples were obtained from the brain of mice treated with vehicle or dapansutrile and subjected to exhaustive exercise.

[2] = tested on: NLRC4 inflammasome pathway; assay: In vitro screening: cytokine production via NLRC4 inflammasome pathway; type: cell-based
[3] = tested on: APP/PS1 mice hippocampal slices, Schaffer collateral CA3 to CA1 pathway; assay: Long-term potentiation (LTP) in acute hippocampal slices of APP/PS1 mice; type: in vivo; details: for normalized mean LTP of last 5 minutes of recording: APP/PS1 mice, 55-60 min after TBS, APP/PS1 untreated 1.303, wildtype 1.553
Experimental: as §2
Given the observed recovery in the impaired learning and memory processes in APP/PS1 mice treated with 1000 mg/kg/day dapansutrile (Example 5), we were interested in determining whether hippocampal network function would be recovered following medium dose of dapansutrile administration. For this purpose, we analyzed synaptic plasticity at the Schaffer collateral pathway connecting the CA3 with the CA1 subfield, one of the most extensively studied synapses in the central nervous system. Long-term potentiation (LTP) as a cellular correlation of learning processes at the Schaffer collateral CA3 to CA1 pathway was induced by theta-burst stimulation (TBS) after 20 min of baseline recording.
Acute hippocampal slices were prepared from mice in four groups including wild-type, APP/PS1, APP/PS1 treated with 500 mg/kg/day and APP/PS1 treated with 1000 mg/kg/day of dapansutrile. Briefly, mice were deeply anesthetized with 100% CO2, killed, and then brains were quickly removed and transferred into ice-cold carbogenated (95% O2 and 5% CO2) artificial CSF (ACSF) solution. Afterward, the hippocampus was dissected and transverse hippocampal slices (400 μm) were obtained using a manual tissue chopper. The hippocampal slices were transferred to an interface recording chamber, where they were incubated at 32° C. with a constant flow rate (0.5 ml/min) of carbogenated ACSF for 2 h before the start of recordings. Field excitatory post synaptic potentials (fEPSPs) were recorded in the stratum radiatum of the CA1 region in hippocampal slices. Responses were evoked by stimulation of the Schaffer collateral pathway using two electrodes. These stimulation electrodes (S1 and S2) were positioned equidistantly on both sides of the recording electrode and, by this means, two independent stimulation pathways could be used for the same CA1 recording region. For recording fEPSPs (measured as the first slope function), the recording electrode was placed in the CA1 apical dendritic layer and signals were amplified by a differential amplifier and digitized. […] The slope of fEPSPs was measured over time for 60 min and normalized to the baseline. […]

[4] = tested on: AIM2 inflammasome pathway; assay: In vitro screening: cytokine production via AIM2 inflammasome pathway; type: cell-based
APP/PS1 mice [5] = assay: Cytokine levels of brain homogenates of APP/PS1 mice (ELISA); type: in vivo; details: 3 months, vs control food
Experimental: as §2
One hemisphere of each mouse was homogenized in STKM-buffer and centrifuged for 10 min at 4° C. with 13,000 g. The supernatant of the brain lysate was collected and measured for pro-inflammatory mediators IL-6 and IL-1β by ELISA by diluting the sample 1:2. […] The IL-1β levels were reduced in APP/PS1 mice treated with dapansutrile at a low dose (500 mg/kg/day, p value=0.0287) and a medium dose (1000 mg/kg/day, p value=0.0368) compared to APP/PS1 mice fed with control food (FIG. 2B)

[6] = tested on: 68 critical transmembrane and soluble receptors, ion channels and monoamine transporters; additional 69 receptors and enzymes; assay: Off-target screening panels (68 receptors, ion channels, monoamine transporters; additional 69 receptors and enzymes); details: all targets other than PDE4
Experimental: as §1

[7] = exhaustive exercise, 60 ng IL-1β i.p., 4 hours later, vs vehicle

Sequence of COX-1 (P23219 24-599): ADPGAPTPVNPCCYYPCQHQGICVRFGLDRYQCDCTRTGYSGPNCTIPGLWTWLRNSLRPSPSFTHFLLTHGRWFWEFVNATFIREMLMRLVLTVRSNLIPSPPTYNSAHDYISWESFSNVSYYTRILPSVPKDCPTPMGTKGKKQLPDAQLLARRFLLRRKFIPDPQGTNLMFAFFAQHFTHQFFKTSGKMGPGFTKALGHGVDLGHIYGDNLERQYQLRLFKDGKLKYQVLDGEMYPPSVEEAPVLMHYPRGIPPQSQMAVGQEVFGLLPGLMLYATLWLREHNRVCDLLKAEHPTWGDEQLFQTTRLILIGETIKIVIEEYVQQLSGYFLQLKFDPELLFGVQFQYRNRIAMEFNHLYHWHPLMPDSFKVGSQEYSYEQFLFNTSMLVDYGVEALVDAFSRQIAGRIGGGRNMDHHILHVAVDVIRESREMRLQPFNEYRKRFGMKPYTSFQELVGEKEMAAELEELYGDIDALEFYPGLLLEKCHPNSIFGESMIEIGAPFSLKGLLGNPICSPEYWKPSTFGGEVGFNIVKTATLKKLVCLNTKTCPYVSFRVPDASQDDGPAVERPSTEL

CS(=O)(=O)CCC#N [dapansutrile, 3-Methanesulfonylpropionitrile]
interaction with opioid receptors (opioid receptors): no interaction | inhibition of pro-IL-18 (pro-IL-18): no inhibition | inhibition of pro-IL-1 (pro-IL-1): no inhibition | concentration range in which PDE4 enzyme was inhibited (PDE4 enzyme; dose-responsive, subsequent studies not conclusive): ≥ 100 µM | concentration range in which PDE4 enzyme was inhibited (PDE4 enzyme; same bound given in μg/mL): ≥ 13 µg/mL | direct effects on COX-1 (COX-1): no direct effects | escape latency (time to reach the hidden platform) (APP/PS1 mice [1]; 500 mg/kg/day, day 5, N=5, APP/PS1 control food 42.04±6.89, wildtype 23.59±4.08): 37.31 ± 4.96 s | preference for the target quadrant (TQ) over non-target quadrants (NT), probe trial (APP/PS1 mice [1]; 500 mg/kg/day, day 9): no preference | escape latency (time to reach the hidden platform) (APP/PS1 mice [1]; 1000 mg/kg, day 5, N=6, p value=0.021, APP/PS1 control food 42.04±6.89, wildtype 23.59±4.08): 21.30 ± 3.19 s | preference for the target quadrant (TQ) over non-target quadrants (NT), probe trial (APP/PS1 mice [1]; 1000 mg/kg/day, day 9, p value=0.0001): significant preference | direct effects on COX-2 (COX-2): no direct effects | level of systemic IL-1β after IL-1β stimulation (IL-1β challenged mice; data not shown): also reduced | level of systemic IL-6 after IL-1β stimulation (IL-1β challenged mice; data not shown): also reduced | level of systemic MPO after IL-1β stimulation (IL-1β challenged mice; data not shown): also reduced | IL-6 level in the brain (IL-1β challenged mice; [7]): reduced levels | myeloperoxidase (MPO) level in the brain (IL-1β challenged mice; [7]): reduced levels | inhibitory effect on cytokine production via the NLRC4 inflammasome pathway [2]: no inhibitory effect | LTP impairment in APP/PS1 mice ([3]; 1000 mg/kg/day): rescued | normalized mean LTP of last 5 minutes of recording ([3]; low dose (500 mg/kg/day), N=2, n=8): 1.198 | normalized mean LTP of last 5 minutes of recording ([3]; medium dose (1000 mg/kg/day), N=1, n=7): 1.469 | LTP deficit in APP/PS1 mice ([3]; low dose, 500 mg/kg/day): not able to improve | inhibitory effect on cytokine production via the AIM2 inflammasome pathway [4]: no inhibitory effect | IL-1β levels in brain lysate (APP/PS1 mice [5]; 500 mg/kg/day oral via feed, p value=0.0287): reduced | IL-6 levels in brain lysate (APP/PS1 mice [5]; 1000 mg/kg/day oral via feed, p value=0.0035): reduced | IL-1β levels in brain lysate (APP/PS1 mice [5]; 1000 mg/kg/day oral via feed, p value=0.0368): reduced | other effects in the screening assays [6]: No other effects were noted
